From PMC7162861, “Synthesis, cytotoxicity, pharmacokinetic profile, binding with DNA and BSA of new imidazo[1,2-a]pyrazine-benzo[d]imidazol-5-yl hybrids” (Scientific Reports, 2020)

Legend:
[1] = Experimental log P, shake-flask method; format: physicochemical; conditions: n-octanol/phosphate buffer pH 7.4, read-out: Exp. Log P
Experimental: Partition coefficients or experimental log P values of all synthesized compounds (9–23, 30 and 31) were calculated using the shake-flask method. Log P values were determined using n-octanol and phosphate buffer (pH = 7.4) at 10:1 ratio of volumes. Stock solutions (10^−3 M) of compounds were prepared in DMSO. Glass vials were used to make final solutions i.e. stock solution (250 µL) and phosphate buffer (125 µL). To record the absorbance, wavelength was selected based on λmax of the respective compound. Initial absorbance (Ai) for every compound was noted consuming the stock solution in the buffer phase. Now added n-octanol to every vial and shaken well using a mechanical shaker for 50 minutes. To get separation of both phases, glass vials were centrifuged for 35 min. at 2500 rpm. Then, the layer of octanol was separated from glass vial. The final absorbance (Af) of each compound was recorded by using the buffer layer. The values of P for compounds were determined by the following equation (Eq. 8):8 P=Ai−Af/Af×Vw/Vo

| logP [1] | melting point [°C] | Compound |
| --- | --- | --- |
| 0.23 | 201 to 203 | O=Cc1ccc(-c2cn3ccnc3c(-c3ccc4c(c3)ncn4C3CCCCC3)n2)cc1 [Compound 11, 4-(8-(1-cyclohexyl-1H-benzo[d]imidazol-5-yl)imidazo[1,2-a]pyrazin-6-yl)benzaldehyde] |
| 1.54 | 183 to 186 | Cc1cccc(-c2cn3ccnc3c(-c3ccc4c(c3)ncn4C3CCCCC3)n2)c1 [Compound 15, 8-(1-cyclohexyl-1H-benzo[d]imidazol-5-yl)-6-(m-tolyl)imidazo[1,2-a]pyrazine] |
| 1.67 | 196 to 199 | FC(F)(F)c1cccc(-c2cn3ccnc3c(-c3ccc4c(c3)ncn4C3CCCCC3)n2)c1 [Compound 23, 8-(1-cyclohexyl-1H-benzo[d]imidazol-5-yl)-6-(3-(trifluoromethyl)phenyl)imidazo[1,2-a]pyrazine] |
